Data as given in patent US9051270B2, “Pyridone amides as modulators of sodium channels” (Vertex Pharmaceuticals Incorporated, priority 2013, dated 2015).

Assays:
[1] = Microsomal stability assay, rat liver microsomes (RLM); format: in vitro ADME; details: rat liver microsomes 0.5 mg/mL, 1 uM substrate, 2 mM NADPH, 37° C., referenced against time zero control
Description: (§1) Microsomal Stability Assay.
(§2) Compounds were incubated at 37° C. and shaken for 30 minutes in a phosphate buffered solution with either rat or human liver microsomes and the cofactor NADPH. A time zero control was similarly prepared, however with NADPH excluded. The final incubation concentrations were 1 uM substrate (0.2% DMSO), 0.5 mg/mL liver microsome, 2 mM NADPH, and 0.1 M phosphate. Reactions were quenched and proteins precipitated with the addition of 2 volume equivalents of ice cold acetonitrile containing an internal standard. Following a centrifugation step, aliquots from the quenched incubations were further diluted with 4 volume equivalents of a 50% aqueous methanol solution and then subjected to LC/MS/MS analysis for quantitation of parent compound. Microsome stability values were calculated as the percent of substrate remaining after 30 minutes referenced against the time zero control.
(§3) Microsomal stability in rat and human liver microsomes were determined for selected compounds of the present invention using the above assay. Table 4 provides the human liver microsomes (“HLM”) and rat liver microsomes (“RLM”) stability data as the percent of compound remaining after 30 minutes referenced against the time zero control.

[2] = Microsomal stability assay, human liver microsomes (HLM); format: in vitro ADME; details: human liver microsomes 0.5 mg/mL, 1 uM substrate, 2 mM NADPH, 37° C., referenced against time zero control
Description: as §1, §2, §3

[3] = biological target: human Nav1.8 (Homo sapiens (Human), UniProt Q9Y5Y9); assay: E-VIPR optical membrane potential assay with electrical stimulation; format: cell-based; details: HEK cells expressing human Nav1.8
Chain of human Nav1.8 (Q9Y5Y9 whole entry): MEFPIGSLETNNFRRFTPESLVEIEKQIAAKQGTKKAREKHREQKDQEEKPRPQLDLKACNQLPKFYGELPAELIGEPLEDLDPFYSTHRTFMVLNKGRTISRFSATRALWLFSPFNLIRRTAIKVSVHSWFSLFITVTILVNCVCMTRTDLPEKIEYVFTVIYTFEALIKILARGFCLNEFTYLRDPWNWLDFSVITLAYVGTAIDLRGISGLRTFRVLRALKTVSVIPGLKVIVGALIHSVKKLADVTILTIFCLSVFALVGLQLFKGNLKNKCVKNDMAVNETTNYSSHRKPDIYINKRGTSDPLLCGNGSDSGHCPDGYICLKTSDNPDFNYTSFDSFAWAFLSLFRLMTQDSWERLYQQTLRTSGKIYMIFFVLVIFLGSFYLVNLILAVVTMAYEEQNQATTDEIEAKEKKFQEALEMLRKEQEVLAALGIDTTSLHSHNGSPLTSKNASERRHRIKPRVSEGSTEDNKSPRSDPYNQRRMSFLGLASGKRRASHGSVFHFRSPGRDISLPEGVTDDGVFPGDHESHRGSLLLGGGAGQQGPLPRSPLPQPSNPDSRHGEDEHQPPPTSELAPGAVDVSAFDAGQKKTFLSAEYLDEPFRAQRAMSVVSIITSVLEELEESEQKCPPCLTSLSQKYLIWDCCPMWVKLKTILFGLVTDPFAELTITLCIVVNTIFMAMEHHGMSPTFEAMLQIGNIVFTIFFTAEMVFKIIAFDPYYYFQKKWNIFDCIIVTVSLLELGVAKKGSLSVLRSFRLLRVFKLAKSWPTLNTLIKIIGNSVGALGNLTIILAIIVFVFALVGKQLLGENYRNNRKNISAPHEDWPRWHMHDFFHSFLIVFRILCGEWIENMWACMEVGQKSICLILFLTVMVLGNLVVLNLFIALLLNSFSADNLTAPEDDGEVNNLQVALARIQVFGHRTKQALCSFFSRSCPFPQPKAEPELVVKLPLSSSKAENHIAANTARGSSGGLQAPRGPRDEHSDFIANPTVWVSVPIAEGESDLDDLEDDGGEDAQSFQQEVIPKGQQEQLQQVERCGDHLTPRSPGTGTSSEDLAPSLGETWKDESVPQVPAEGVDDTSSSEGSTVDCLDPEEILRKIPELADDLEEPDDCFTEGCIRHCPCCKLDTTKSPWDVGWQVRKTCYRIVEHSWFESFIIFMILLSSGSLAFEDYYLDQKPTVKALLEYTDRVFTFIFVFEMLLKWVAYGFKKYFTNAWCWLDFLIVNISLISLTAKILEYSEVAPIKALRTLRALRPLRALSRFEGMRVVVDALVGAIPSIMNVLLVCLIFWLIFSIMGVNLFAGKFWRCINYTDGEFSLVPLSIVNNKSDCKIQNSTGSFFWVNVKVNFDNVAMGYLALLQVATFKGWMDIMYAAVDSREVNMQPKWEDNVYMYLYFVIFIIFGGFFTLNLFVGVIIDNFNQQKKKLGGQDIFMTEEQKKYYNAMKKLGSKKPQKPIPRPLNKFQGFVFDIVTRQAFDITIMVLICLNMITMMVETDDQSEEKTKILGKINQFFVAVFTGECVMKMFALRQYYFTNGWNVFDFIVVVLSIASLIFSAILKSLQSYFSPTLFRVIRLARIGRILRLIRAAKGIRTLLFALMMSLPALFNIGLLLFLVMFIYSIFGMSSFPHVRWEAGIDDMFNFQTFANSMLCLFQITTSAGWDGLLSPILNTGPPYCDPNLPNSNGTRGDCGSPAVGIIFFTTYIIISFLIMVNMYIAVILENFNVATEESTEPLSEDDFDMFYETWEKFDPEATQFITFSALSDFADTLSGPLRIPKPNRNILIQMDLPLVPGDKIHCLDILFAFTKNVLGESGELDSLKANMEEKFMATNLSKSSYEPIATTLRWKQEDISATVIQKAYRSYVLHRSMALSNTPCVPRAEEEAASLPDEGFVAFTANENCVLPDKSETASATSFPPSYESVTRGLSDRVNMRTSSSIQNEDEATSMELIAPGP

SMILES | RLM (% remaining @ 30 minutes) [1] [%] | HLM (% remaining @ 30 minutes) [2] [%] | IC50 [3] [µM]
Cc1cc(F)ccc1Oc1cc(C(F)(F)F)ccc1C(=O)Nc1cc[nH]c(=O)c1 [Compound 10, 2-(4-fluoro-2-methylphenoxy)-N-(2-oxo-1,2-dihydropyridin-4-yl)-4-(trifluoromethyl)benzamide] | 82 | 93 | –
O=C(Nc1cc[nH]c(=O)c1)c1cc(C(F)(F)F)ccc1Oc1ccc(F)cc1 [Compound 2, 2-(4-fluorophenoxy)-N-(2-oxo-1,2-dihydropyridin-4-yl)-5-(trifluoromethyl)benzamide] | 104 | 100 | 0.054
COCCOc1ccc(Oc2cc(C(F)(F)F)ccc2C(=O)Nc2cc[nH]c(=O)c2)cc1 [Compound 8, 2-(4-(2-methoxyethoxy)phenoxy)-N-(2-oxo-1,2-dihydropyridin-4-yl)-4-(trifluoromethyl)benzamide] | 86 | 90 | 0.33
COc1cc(F)ccc1Oc1cc(C(F)(F)C(F)(F)F)ccc1C(=O)Nc1cc[nH]c(=O)c1 [Compound 111, 2-(4-fluoro-2-methoxyphenoxy)-N-(2-oxo-1,2-dihydropyridin-4-yl)-4-(perfluoroethyl)benzamide] | 90 | 91 | 0.003
CC(C)(C)c1ccc(C(=O)Nc2ccc(=O)[nH]c2)c(Oc2ccc(C(F)(F)F)nc2)c1 [Compound 142, 4-(tert-butyl)-N-(6-oxo-1,6-dihydropyridin-3-yl)-2-((6-(trifluoromethyl)pyridin-3-yl)oxy)benzamide] | 50 | 38 | 0.653
O=C(Nc1cc[nH]c(=O)c1)c1cc(Cl)c(Cl)cc1Oc1ccc(F)cc1 [Compound 113, 4,5-dichloro-2-(4-fluorophenoxy)-N-(2-oxo-1,2-dihydropyridin-4-yl)benzamide] | 102 | 105 | 0.006
O=C(Nc1cc[nH]c(=O)c1)c1ccc(C(F)(F)F)cc1Oc1ccc(OC(F)F)cc1 [Compound 82, 2-(4-(difluoromethoxy)phenoxy)-N-(2-oxo-1,2-dihydropyridin-4-yl)-4-(trifluoromethyl)benzamide] | 98 | 101 | 0.036
O=C(Nc1cc[nH]c(=O)c1)c1cc(OC(F)(F)F)ccc1Oc1ccc(F)cc1Cl [Compound 37, 2-(2-chloro-4-fluorophenoxy)-N-(2-oxo-1,2-dihydropyridin-4-yl)-5-(trifluoromethoxy)benzamide] | 97 | 100 | 0.051
O=C(Nc1cc[nH]c(=O)c1)c1ccc(C(F)(F)C(F)(F)F)cc1Oc1ccc(F)cc1 [Compound 88, 2-(4-fluorophenoxy)-N-(2-oxo-1,2-dihydropyridin-4-yl)-4-(perfluoroethyl)benzamide] | 102 | 100 | 0.012
O=C(Nc1cc[nH]c(=O)c1)c1cc(C(F)(F)F)ccc1Oc1ccccc1OC(F)F [Compound 76, 2-(2-(difluoromethoxy)phenoxy)-N-(2-oxo-1,2-dihydropyridin-4-yl)-5-(trifluoromethyl)benzamide] | 93 | 97 | 0.054
COc1ccc(Oc2cc(Cl)c(Cl)cc2C(=O)Nc2cc[nH]c(=O)c2)cc1F [Compound 115, 4,5-dichloro-2-(3-fluoro-4-methoxyphenoxy)-N-(2-oxo-1,2-dihydropyridin-4-yl)benzamide] | 95 | 102 | 0.007
O=C(Nc1cc[nH]c(=O)c1)c1cc(C(F)(F)F)ccc1Oc1ccc(F)c(F)c1F [Compound 90, N-(2-oxo-1,2-dihydropyridin-4-yl)-5-(trifluoromethyl)-2-(2,3,4-trifluorophenoxy)benzamide] | 104 | 101 | 0.026
O=C(Nc1cc[nH]c(=O)c1)c1c(Oc2ccc(F)cc2F)cc(C(F)(F)F)cc1C(F)(F)F [Compound 152, 2-(2,4-difluorophenoxy)-N-(2-oxo-1,2-dihydropyridin-4-yl)-4,6-bis(trifluoromethyl)benzamide] | 100 | 103 | 0.044
O=C(Nc1cc[nH]c(=O)c1)c1ccc(C(F)(F)F)cc1OCCCC(F)(F)F [Compound 123, N-(2-oxo-1,2-dihydropyridin-4-yl)-2-(4,4,4-trifluorobutoxy)-4-(trifluoromethyl)benzamide] | 98 | 103 | 0.355
O=C(Nc1cc[nH]c(=O)c1)c1ccc(C(F)(F)F)cc1Oc1ccc(F)cc1F [Compound 7, 2-(2,4-difluorophenoxy)-N-(2-oxo-1,2-dihydropyridin-4-yl)-4-(trifluoromethyl)benzamide] | 99 | 97 | 0.05
COc1cc(F)ccc1Oc1cc(Cl)c(Cl)cc1C(=O)Nc1cc[nH]c(=O)c1 [Compound 114, 4,5-dichloro-2-(4-fluoro-2-methoxyphenoxy)-N-(2-oxo-1,2-dihydropyridin-4-yl)benzamide] | 82 | 91 | 0.001
O=C(Nc1cc[nH]c(=O)c1)c1ccc(C(F)(F)F)cc1OCC1CCCC1 [Compound 120, 2-(cyclopentylmethoxy)-N-(2-oxo-1,2-dihydropyridin-4-yl)-4-(trifluoromethyl)benzamide] | 79 | 87 | 0.15
O=C(Nc1cc[nH]c(=O)c1)c1cc(Cl)ccc1Oc1ccc(F)cc1Cl [Compound 66, 5-chloro-2-(2-chloro-4-fluorophenoxy)-N-(2-oxo-1,2-dihydropyridin-4-yl)benzamide] | 106 | 100 | 0.037
O=C(Nc1cc[nH]c(=O)c1)c1ccc(C(F)(F)F)cc1Oc1ccc(F)cc1CO [Compound 157, 2-(4-fluoro-2-(hydroxymethyl)phenoxy)-N-(2-oxo-1,2-dihydropyridin-4-yl)-4-(trifluoromethyl)benzamide] | 102 | 101.5 | 0.058
COc1cc(F)ccc1Oc1ccc(C(F)(F)F)cc1C(=O)Nc1cc[nH]c(=O)c1 [Compound 30, 2-(4-fluoro-2-methoxyphenoxy)-N-(2-oxo-1,2-dihydropyridin-4-yl)-5-(trifluoromethyl)benzamide] | 78 | 76 | 0.011
Cc1cc(F)ccc1Oc1ccc(Cl)cc1C(=O)Nc1cc[nH]c(=O)c1 [Compound 68, 5-chloro-2-(4-fluoro-2-methylphenoxy)-N-(2-oxo-1,2-dihydropyridin-4-yl)benzamide] | 72 | 98 | 0.03
O=C(Nc1cc[nH]c(=O)c1)c1cc(F)ccc1Oc1ccc(OC(F)(F)F)cc1 [Compound 101, 5-fluoro-N-(2-oxo-1,2-dihydropyridin-4-yl)-2-(4-(trifluoromethoxy)phenoxy)benzamide] | 89 | 97 | 0.12
